Laboratory results published in the supplement of paper PMC10307832.

compound: Cc1cnc(CNC(=O)c2c(=O)c3ccc(N4CCCN(C)CC4)nc3n3c2sc2ccccc23)cn1 [CX-5461] + O=C(CCCCCCC(=O)Nc1ccccc1)NO [Vorinostat] (partner 1 µM); assay: relative viability (nuclei count vs DMSO), 5 days (fraction); higher = more cells survive; settings: first compound 1 µM
Summary of the method: (§1)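 Relative viability was taken as the ratio of nuclei in treated wells to nuclei in vehicle wells. Lung cancer cell lines in 1536-well plates received compounds by pin tool one day after seeding, either one drug alone or a fixed anchor-drug dose plus five library-drug doses (not always all listed) in √10 steps. Nuclei were counted on 4× images after 5 days of treatment, and values are medians of duplicate plates.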

| Cell Line | relative viability |
| --- | --- |
| NCI-H1755 | 0.667 |
| NCI-H2023 | 0.0756 |

compound: Cc1cnc(CNC(=O)c2c(=O)c3ccc(N4CCCN(C)CC4)nc3n3c2sc2ccccc23)cn1 [CX-5461] + CCNC(=O)c1noc(-c2cc(C(C)C)c(O)cc2O)c1-c1ccc(CN2CCOCC2)cc1 [Luminespib] (partner 0.01 µM); assay: as above; settings: first compound 0.01 µM
Summary of the method: as §1

| Cell Line | relative viability |
| --- | --- |
| NCI-H358 | 0.317 |
| NCI-H2405 | 0.664 |
| HOP-62 | 0.849 |
| SW 900 | 0.171 |
| LU99A | 0.187 |
| BEN | 0.326 |
| HARA | 0.711 |
| NCI-H322M | 1.08 |
| LCLC-97TM1 | 0.865 |
| NCI-H2009 | 1.08 |
| A-427 | 0.965 |
| NCI-H441 | 0.322 |
| NCI-H661 | 0.928 |
| NCI-H1734 | 0.182 |
| NCI-H460 | 0.0291 |
| NCI-H2347 | 0.563 |
| SW 1573 | 0.295 |

| Cell Line | relative viability |
| --- | --- |
| NCI-H1793 | 0.199 |
| 201T | 1.05 |
| NCI-H1915 | 0.857 |
| HCC-827 | 0.875 |
| LXF-289 | 0.627 |
| NCI-H23 | 0.212 |
| NCI-H647 | 0.192 |
| CAL-12T | 0.302 |
| NCI-H1651 | 0.827 |
| EPLC-272H | 0.324 |
| NCI-H2228 | 0.148 |
| NCI-H1355 | 0.843 |
| NCI-H3122 | 0.0935 |
| NCI-H1437 | 1.15 |
| NCI-H1755 | 0.383 |
| NCI-H2023 | 0.675 |

same assay, conditions: first compound 0.03162 µM

| Cell Line | relative viability |
| --- | --- |
| NCI-H358 | 0.42 |
| NCI-H2405 | 0.665 |
| HOP-62 | 0.921 |
| SW 900 | 0.162 |
| LU99A | 0.218 |
| BEN | 0.391 |
| HARA | 1.15 |
| NCI-H322M | 0.799 |
| LCLC-97TM1 | 0.84 |
| NCI-H2009 | 1.02 |
| A-427 | 0.899 |
| NCI-H441 | 0.421 |
| NCI-H661 | 0.879 |
| NCI-H1734 | 0.148 |
| NCI-H460 | 0.0347 |
| NCI-H2347 | 0.413 |
| SW 1573 | 0.163 |

| Cell Line | relative viability |
| --- | --- |
| NCI-H1793 | 0.249 |
| 201T | 1.04 |
| NCI-H1915 | 0.852 |
| HCC-827 | 0.69 |
| LXF-289 | 0.798 |
| NCI-H23 | 0.234 |
| NCI-H647 | 0.163 |
| CAL-12T | 0.534 |
| NCI-H1651 | 0.682 |
| EPLC-272H | 0.192 |
| NCI-H2228 | 0.147 |
| NCI-H1355 | 0.728 |
| NCI-H3122 | 0.0696 |
| NCI-H1437 | 1.2 |
| NCI-H1755 | 0.357 |
| NCI-H2023 | 0.318 |

same assay, conditions: first compound 0.1 µM

| Cell Line | relative viability |
| --- | --- |
| NCI-H358 | 0.327 |
| NCI-H2405 | 0.862 |
| HOP-62 | 0.905 |
| SW 900 | 0.19 |
| LU99A | 0.235 |
| BEN | 0.289 |
| HARA | 1.09 |
| NCI-H322M | 0.798 |
| LCLC-97TM1 | 0.889 |
| NCI-H2009 | 0.887 |
| A-427 | 0.953 |
| NCI-H441 | 0.323 |
| NCI-H661 | 0.792 |
| NCI-H1734 | 0.193 |
| NCI-H2347 | 0.753 |
| SW 1573 | 0.164 |
| NCI-H1793 | 0.131 |
| 201T | 1.05 |
| NCI-H1915 | 0.813 |
| HCC-827 | 0.921 |
| LXF-289 | 0.823 |
| NCI-H23 | 0.197 |
| NCI-H647 | 0.169 |
| CAL-12T | 0.31 |
| EPLC-272H | 0.196 |
| NCI-H2228 | 0.196 |
| NCI-H1355 | 0.753 |
| NCI-H3122 | 0.096 |
| NCI-H1755 | 0.482 |

same assay, conditions: first compound 0.3162 µM

| Cell Line | relative viability |
| --- | --- |
| NCI-H358 | 0.358 |
| NCI-H2405 | 0.743 |
| HOP-62 | 0.973 |
| SW 900 | 0.18 |
| LU99A | 0.241 |
| BEN | 0.337 |
| NCI-H322M | 0.469 |
| NCI-H2009 | 0.985 |
| NCI-H441 | 0.444 |
| NCI-H661 | 0.575 |
| NCI-H1734 | 0.173 |
| NCI-H460 | 0.041 |
| NCI-H2347 | 0.327 |
| SW 1573 | 0.187 |
| 201T | 1.06 |
| NCI-H1915 | 0.923 |
| HCC-827 | 0.588 |
| LXF-289 | 0.732 |
| NCI-H23 | 0.234 |
| NCI-H647 | 0.146 |
| CAL-12T | 1.51 |
| NCI-H1651 | 0.603 |
| NCI-H2228 | 0.172 |
| NCI-H1355 | 0.706 |
| NCI-H3122 | 0.0801 |
| NCI-H1437 | 1.08 |
| NCI-H1755 | 0.402 |
| NCI-H2023 | 0.314 |

same assay, conditions: first compound 1 µM

| Cell Line | relative viability |
| --- | --- |
| NCI-H358 | 0.371 |
| NCI-H2405 | 0.515 |
| HOP-62 | 0.917 |
| SW 900 | 0.176 |
| LU99A | 0.242 |
| BEN | 0.181 |
| HARA | 0.392 |
| NCI-H322M | 0.402 |
| LCLC-97TM1 | 0.703 |
| NCI-H2009 | 0.508 |
| A-427 | 0.721 |
| NCI-H441 | 0.239 |
| NCI-H661 | 0.433 |
| NCI-H1734 | 0.157 |
| NCI-H460 | 0.0205 |
| NCI-H2347 | 0.341 |
| SW 1573 | 0.0965 |

| Cell Line | relative viability |
| --- | --- |
| NCI-H1793 | 0.194 |
| 201T | 1.11 |
| NCI-H1915 | 0.783 |
| HCC-827 | 0.791 |
| LXF-289 | 0.662 |
| NCI-H23 | 0.214 |
| NCI-H647 | 0.108 |
| CAL-12T | 0.24 |
| NCI-H1651 | 0.171 |
| EPLC-272H | 0.356 |
| NCI-H2228 | 0.101 |
| NCI-H1355 | 0.814 |
| NCI-H3122 | 0.0781 |
| NCI-H1437 | 0.966 |
| NCI-H1755 | 0.512 |
| NCI-H2023 | 0.0698 |

compound: O=C(Nc1cc(C(F)(F)F)cc(C(F)(F)F)c1)c1cc(Cl)ccc1O [IMD-0354] + Cc1cc(Nc2cc(N3CCN(C)CC3)nc(Sc3ccc(NC(=O)C4CC4)cc3)n2)n[nH]1 [Tozasertib] (partner 0.1 µM); assay: as above; settings: first compound 0.04 µM
Summary of the method: as §1

| Cell Line | relative viability |
| --- | --- |
| NCI-H358 | 0.11 |
| NCI-H2405 | 0.742 |
